Patent US8765117B2, “Generation of vascularized human heart tissue and uses thereof” (The General Hospital Corporation, priority 2009, dated 2014)
“Also recorded” adds a separate entry of the source.

Legend:
Type in all cases: cell-based
[1] = tested on: mouse Isl1+ cells; assay: Vasculargenic commitment of mouse ES cells into mouse Isl1+/CD31+ cells (FACS with anti-CD31); settings: for proportion of Isl1−/CD31+ cells: mouse ES cells; for vasculargenic commitment / differentiation into Isl1+/CD31+ cells (in words): mouse cells
[2] = tested on: human Isl1+ primordial progenitors; assay: Differentiation of human Isl1+ primordial progenitors along vasculargenic lineages into Isl1+/CD31+ cells (FACS with anti-CD31); settings: for proportion of Isl1−/CD31+ cells: human ES cells; for increase of human Isl1+/CD31+ (GFP+/CD31+) cells: VEGF D4-D22 or ALK5 inhibitor D7-D22, compared to absence of the agent
From the text: When Isl1+ is expressed in this ES cell line, the cells co-express GFP.

[3] = tested on: human ISL1-βgeo BAC transgenic cells; assay: Expansion of hES cell-derived ISL1+ clones on mouse CMC feeders with BIO
Procedure: FIGS. 9A-9B show the expansion and characterization of hES cell-derived ISL1+ cardiac progenitors. FIG. 9A show ISL1+ cells increased by BIO treatment. Day 6 EBs of human ISL1-βgeo BAC transgenic cells were dissociated and cultured on mouse CMC feeders for two days before treated with and without BIO for another five days. Colonies were stained with anti-ISL1 antibody and counted for ISL1+ ones. […] Cells dissociated from day 7 EBs of human ISL1-cre DsRed cells were plated on Wnt3a-secreting feeders, cultured for five days and FACS isolated. Gene expression of DsRed+ cells was compared with DsRed− cells. Bars represent mean±s.d.; n=3.
Canonical Wnt pathways can promote the expansion of Isl1+ cardiac progenitors in the mouse^18-20. […] The inventors then isolated human ISL1-cre DsRed cells from day 7 EBs, which were dissociated and plated on a plastic surface, MEF, Wnt3a-secreting, or L cell feeders.

Row | Compound | vessel-like structures ([1]; Isl1+ (YFP+) cells sorted at D8, cultured with VEGF until D20) | proportion of Isl1−/CD31+ cells [1] | increase of efficiency of differentiation into Isl1+/CD31+ cells ([1]; mouse Isl1+ cells, VEGF about 2 weeks from D4) | vasculargenic commitment / differentiation into Isl1+/CD31+ cells (in words) [1] | vessel-like structures in vitro ([2]; VEGF treatment) | proportion of Isl1−/CD31+ cells [2] | vasculargenic commitment / differentiation into human Isl1+/CD31+ cells (in words) [2] | ISL1+ cells (in words) ([3]; BIO for five days on mouse CMC feeders) | increase of human ISL1+ clones ([3]; compared to CMC control) | vasculargenic commitment / differentiation into Isl1+/CD31+ cells (in words) ([1]; listed as ALK5i) | increase of human Isl1+/CD31+ (GFP+/CD31+) cells [2] | increase of human Isl1+/CD31+ (GFP+/CD31+) cells ([2]; listed as ALK5i) | vasculargenic commitment / differentiation into human Isl1+/CD31+ cells (in words) ([2]; listed as ALK5i) | overall human Isl1+ (GFP+) population ([2]; prolonged treatment)
1 | VEGF | demonstrated vessel-like structures | increases the proportion of Isl1−/CD31+ cells | at least 2 fold | promotes the vasculargenic commitment; also recorded: increases efficiency of differentiation | produced vessel-like structures in vitro | increases the proportion of Isl1−/CD31+ cells | promotes the vasculargenic commitment |  |  |  |  |  |  | 
2 | O=C1Nc2cc(Br)ccc2/C1=C1/Nc2ccccc2/C1=N\O [BIO, 6-bromoindirubin-3′-oxime] |  |  |  |  |  |  |  | increased | over 30% |  |  |  |  | 
3 | NC(=O)c1ccc(-c2nc(-c3ccc4c(c3)OCO4)c(-c3ccccn3)[nH]2)cc1 [SB431542, 4-[4-(1,3-Benzodioxol-5-yl)-5-(2-pyridinyl)-1H-imidazol-2-yl]-benzamide] |  | increases the proportion of Isl1−/CD31+ cells |  | increases the efficiency of differentiation |  | increases the proportion of Isl1−/CD31+ cells | increases the efficiency of differentiation |  |  | promotes the vasculargenic commitment | 4-5 fold | 4 to 5 fold | promotes the vasculargenic commitment | reduced the overall human Isl1+ (GFP+) population
